Where only a bound is given, the exact number is not on record here.

This assay addresses T1, human apelin receptor (APJ, APLNR) (Homo sapiens, UniProt P35414).
T1 construct: host or cells: Chinese hamster ovary (CHO) cells, stably integrated receptor
T1 sequence (P35414 1-380): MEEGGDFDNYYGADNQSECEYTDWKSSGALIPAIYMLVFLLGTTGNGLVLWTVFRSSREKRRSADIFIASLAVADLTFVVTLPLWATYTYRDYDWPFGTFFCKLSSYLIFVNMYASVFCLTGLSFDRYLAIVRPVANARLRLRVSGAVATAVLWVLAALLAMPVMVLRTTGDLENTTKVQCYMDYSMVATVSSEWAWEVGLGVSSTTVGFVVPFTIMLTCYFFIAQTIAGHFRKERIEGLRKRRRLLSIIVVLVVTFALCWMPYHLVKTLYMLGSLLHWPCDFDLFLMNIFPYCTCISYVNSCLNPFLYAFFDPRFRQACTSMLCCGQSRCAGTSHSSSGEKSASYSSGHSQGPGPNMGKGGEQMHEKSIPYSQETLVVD
The experiment in a line: cell-based cAMP assay (TR-FRET) in Chinese hamster ovary cells expressing the apelin receptor. As to conditions: EC50 = 50% of control (apelin-13, 1 nM) response; cAMP in CHO cells, 0.5 h incubation; read-out: Potency Category. As for the experimental part:
This example illustrates the biological activity of various compounds tested against the APJ receptor.
Commercially available cell lines were used to screen chemical libraries to identify compounds that potently and selectively activated the human apelin receptor. The assays disclosed herein were performed using cell lines from DiscoveX, Inc.
Biological activity was determined to the cell-based assay. This assay detects activation of the receptor by reporting on intracellular cyclic adenosine monophosphate (cAMP) level. Chinese hamster ovary cells engineered to express the stably integrated human appellant receptor (APJ, AGTRL-one, APLNR), pleaded into the wells of the microtiter plate. Cells were stimulated with […] to increase intracellular cyclic AMP. Immediately following, compounds were added to the range of final concentrations 0.0-100 μM, in DMSO (not to exceed a final DMSO concentration greater than 1% v/v), and allowed to incubate with the cells for 0.5 h. At the end of the incubation, cells were lysed to stop APJ signaling and cAMP was quantified using a commercially available competitive immunoassay kit that applies homogenous time-resolved florescence energy transfer (TR-FRET). The assay is based on the competition between a europium (Eu) chelate-labeled cAMP donor tracer and cellular cAMP for binding sites on a cAMP-specific monoclonal antibody labeled with an acceptor fluorophore. When antibodies are bound to the cAMP tracer light emissions at 320 nm stimulate the energy transfer from the donor to the acceptor, which in turn emits light at 665 nm. In the presence of competitive unlabeled cAMP (derived from the activity of the receptor or forskolin-stimulated production of cAMP), the labelled cAMP tracer is dissociated from the cAMP antibody, resulting in a loss of FRET signal. The amount of light emitted by the FRET is inversely proportional to the cAMP generated by the cell/receptor system. Potency and efficacy at APJ are reported in reference to the canonical APJ receptor agonist apelin-13 when tested at 1 nM.
Compound competency is reported as the effective concentration required to effect 50% (EC 50) of the control (apelin—13, 1 nM) response in micromole are (μM) units. Compound efficacy (% response) is reported as a percentage of the maximal apein-13 response at 1 nM (control). Potencies were calculated by fitting a four-point logistic curve to concentration response consisting of at least 10 discrete data points spanning effective range of the compounds in the cell-based assay that measures cAMP. In Table 1, the Potency Categories are A, B, C and D. Category A EC50>500 nM; Category B 200<EC50<500 nM; Category C 100<EC50<200 nM; Category D<100 nM.

Take `Cc1nn2c(C(C)C)cc(C(=O)O)nc2c1-c1cccc(Cl)c1` [Compound 32, 3-(3-chlorophenyl)-2-methyl-7-(methylethyl)-8-hydropyrazolo[1,5-a]pyrimidine-5-carboxylic acid]: the EC50 was greater than 500 nM.

On to `CCOC(=O)c1cc(CC)n2nc(C)c(-c3ccccc3)c2n1` [Compound 33, ethyl 7-ethyl-2-methyl-3-phenyl-8-hydropyrazolo[1,5-a]pyrimidine-5-carboxylate], for which the EC50 was greater than 500 nM.

With `CCc1cc(C(=O)O)nc2c(-c3ccccc3)c(C)nn12` [Compound 34, 7-ethyl-2-methyl-3-phenyl-8-hydropyrazolo[1,5-a]pyrimidine-5-carboxylic acid], the EC50 is greater than 500 nM.

Turning to `CCCc1cc(C(=O)OCC)nc2c(-c3ccccc3)c(C)nn12` [Compound 35, ethyl 2-methyl-3-phenyl-7-propyl-8-hydropyrazolo[1,5-a]pyrimidine-5-carboxylate], the EC50 is greater than 500 nM.

With `CCCc1cc(C(=O)O)nc2c(-c3ccccc3)c(C)nn12` [Compound 36, 2-methyl-3-phenyl-7-propyl-8-hydropyrazolo[1,5-a]pyrimidine-5-carboxylic acid], the EC50 is greater than 500 nM.

Turning to `COC(=O)c1nc2c(-c3ccccc3)c(C)nn2c(C(C)C)c1C` [Compound 37, methyl 2,6-dimethyl-7-(methylethyl)-3-phenyl-8-hydropyrazolo[1,5-a]pyrimidine-5-carboxylate], the EC50 is greater than 500 nM.

For `Cc1nn2c(C(C)C)c(C)c(C(=O)O)nc2c1-c1ccccc1` [Compound 38, 2,6-dimethyl-7-(methylethyl)-3-phenyl-8-hydropyrazolo[1,5-a]pyrimidine-5-carboxylic acid], the EC50 was greater than 500 nM.

As for `CCOC(=O)c1cc(C(C)C)n2nc(C)c(-c3c(C)cccc3C)c2n1` [Compound 39, ethyl 3-(2,6-dimethylphenyl)-2-methyl-7-(methylethyl)-8-hydropyrazolo[1,5-a]pyrimidine-5-carboxylate], the EC50 is greater than 500 nM.

For `CCOC(=O)c1cc(C(C)C)n2nc(C)c(-c3c(OC)cccc3OC)c2n1` [Compound 40, ethyl 3-(2,6-dimethoxyphenyl)-2-methyl-7-(methylethyl)-8-hydropyrazolo[1,5-a]pyrimidine-5-carboxylate], the EC50 was greater than 500 nM.

With `Cc1cccc(C)c1-c1c(C)nn2c(C(C)C)cc(C(=O)O)nc12` [Compound 41, 3-(2,6-dimethylphenyl)-2-methyl-7-(methylethyl)-8-hydropyrazolo[1,5-a]pyrimidine-5-carboxylic acid], the EC50 was less than 100 nM.

For the compound `COc1cccc(OC)c1-c1c(C)nn2c(C(C)C)cc(C(=O)O)nc12` [Compound 42, 3-(2,6-dimethoxyphenyl)-2-methyl-7-(methylethyl)-8-hydropyrazolo[1,5-a]pyrimidine-5-carboxylic acid], the EC50 is greater than 500 nM.

For `CC(C)c1cc(C(=O)O)nc2c3c(nn12)CCCC3` [Compound 43, 4-(methylethyl)-5,7,8,9,10-pentahydro-5H-pyrimidino[1,2-b]indazole-2-carboxylic acid], the EC50 was greater than 500 nM.

Take `CCOC(=O)c1cc(C(C)C)n2nc(C)c(-c3ccc(C)cc3C)c2n1` [Compound 44, ethyl 3-(2,4-dimethylphenyl)-2-methyl-7-(methylethyl)-8-hydropyrazolo[1,5-a]pyrimidine-5-carboxylate]: the EC50 is greater than 500 nM.

For the compound `Cc1ccc(-c2c(C)nn3c(C(C)C)cc(C(=O)O)nc23)c(C)c1` [Compound 45, 3-(2,4-dimethylphenyl)-2-methyl-7-(methylethyl)-8-hydropyrazolo[1,5-a]pyrimidine-5-carboxylic acid], the EC50 is greater than 500 nM.

Take `CCOC(=O)c1cc(C(C)C)n2nc(C)c(-c3c(C)cc(OC)cc3C)c2n1` [Compound 46, ethyl 3-(4-methoxy-2,6-dimethylphenyl)-2-methyl-7-(methylethyl)-8-hydropyrazolo[1,5-a]pyrimidine-5-carboxylate]: the EC50 is greater than 500 nM.

For the origin of these results see patent US12006321B2, “Substituted pyrazolo[1,5-a]pyrimidines as apelin receptor agonists” (Sanford Burnham Prebys Medical Discovery Institute, priority 2017, dated 2024).
